Data as given in patent US6608082B1, “Treatment of erectile dysfunction using isoquinoline compound melanocortin receptor ligands” (Lion Bioscience AG, priority 1998, dated 2003).

Experiments:
MCR-1 = target: T1, MCR-1 (Homo sapiens, UniProt Q01726); experiment: Melanocortin receptor binding assay, competition with 125I-HP 467, HEK 293 cells expressing hMCR-1; conditions: inhibition of binding of 125I-HP 467, HEK 293 cells expressing MCR-1, TRG 2414 library; for IC50: read-out: MC-1 IC50
T1 construct: expressed in transfected cells; host or cells: HEK 293
T1 sequence (Q01726 whole entry): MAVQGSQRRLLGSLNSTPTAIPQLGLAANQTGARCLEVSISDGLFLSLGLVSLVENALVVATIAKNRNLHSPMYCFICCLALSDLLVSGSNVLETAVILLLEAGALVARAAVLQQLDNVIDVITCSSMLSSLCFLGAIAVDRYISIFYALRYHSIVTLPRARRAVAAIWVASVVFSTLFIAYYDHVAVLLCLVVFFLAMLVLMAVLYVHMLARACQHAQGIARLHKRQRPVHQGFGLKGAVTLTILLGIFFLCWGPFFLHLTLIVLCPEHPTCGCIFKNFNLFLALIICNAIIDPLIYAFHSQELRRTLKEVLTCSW
How it was run: (§1)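 Test compounds compete on intact HEK 293 cells carrying hMCR-1 (2×10^4 per tube) or hMCR-4 (4×10^3 per tube), suspended in PBS, 10% calf serum, 1 mM CaCl2.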

MCR-4 = target: T2, MCR-4 (Homo sapiens, UniProt P32245); experiment: Melanocortin receptor binding assay, competition with 125I-HP 467, HEK 293 cells expressing hMCR-4; conditions: inhibition of binding of 125I-HP 467, HEK 293 cells expressing MCR-4, TRG 2414 library; for IC50: read-out: MC-4 IC50
T2 construct: expressed in transfected cells; host or cells: HEK 293
T2 sequence (P32245 whole entry): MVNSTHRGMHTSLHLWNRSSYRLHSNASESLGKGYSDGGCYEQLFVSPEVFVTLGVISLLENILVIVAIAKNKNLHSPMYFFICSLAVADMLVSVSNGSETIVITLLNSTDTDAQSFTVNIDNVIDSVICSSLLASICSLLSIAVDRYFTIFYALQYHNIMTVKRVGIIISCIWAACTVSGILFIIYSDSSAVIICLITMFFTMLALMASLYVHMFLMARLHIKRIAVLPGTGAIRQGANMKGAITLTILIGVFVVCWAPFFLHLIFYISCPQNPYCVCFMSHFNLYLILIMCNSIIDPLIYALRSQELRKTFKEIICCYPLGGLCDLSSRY
How it was run: as §1

Row | Compound | IC50 (MCR-1) [µM] | IC50 (MCR-4) [µM] | MC-1 IC50 (MCR-1) | MC-4 IC50 (MCR-4)
1 | NCC(N)CCCCN1Cc2ccccc2C(CNCc2ccccc2C(F)(F)F)C1c1ccc(Oc2ccccc2)cc1 (centres unmarked) [TRG 2414-121] | 8.13 | 27.8 |  | 
2 | NCC(CCCCN1Cc2ccccc2C(CNCc2ccccc2C(F)(F)F)C1c1ccc(Oc2ccccc2)cc1)NCCc1ccccc1 (centres unmarked) [TRG 2414-122] |  | 55.5 | no fit | 
3 | NC[C@H](CCCCN1Cc2ccccc2C(CNCc2ccccc2C(F)(F)F)C1c1ccc(Oc2ccccc2)cc1)NCc1ccccc1 (some centres unmarked) [TRG 2414-123] | 17.6 |  |  | no fit
4 | CC(C)Cc1ccc(C(C)CNC(CN)CCCCN2Cc3ccccc3C(CNCc3ccccc3C(F)(F)F)C2c2ccc(Oc3ccccc3)cc2)cc1 (centres unmarked) [TRG 2414-124] |  |  | no fit | no fit
5 | CCOc1ccccc1CNCC1c2ccccc2CN(CCCCC(N)CN)C1c1ccc(Oc2ccccc2)cc1 (centres unmarked) [TRG 2414-125] | 0.7 | 8.08 |  | 
6 | CCOc1ccccc1CNCC1c2ccccc2CN(CCCCC(CN)NCCc2ccccc2)C1c1ccc(Oc2ccccc2)cc1 (centres unmarked) [TRG 2414-126] | 6.43 | 18.7 |  | 
7 | CCOc1ccccc1CNCC1c2ccccc2CN(CCCCC(CN)NCc2ccccc2)C1c1ccc(Oc2ccccc2)cc1 (centres unmarked) [TRG 2414-127] | 2.14 | 26.8 |  | 
8 | COc1ccccc1CCNCC1c2ccccc2CN(CCCCC(CN)NCCc2ccccc2)C1c1ccc(Oc2ccccc2)cc1 (centres unmarked) [TRG 2414-130] | 4.63 | 13.4 |  | 
9 | COc1ccccc1CCNCC1c2ccccc2CN(CCCCC(CN)NCc2ccccc2)C1c1ccc(Oc2ccccc2)cc1 (centres unmarked) [TRG 2414-131] | 1.65 | 14.6 |  | 
10 | COc1ccccc1CCNCC1c2ccccc2CN(CCCCC(CN)NCC(C)c2ccc(CC(C)C)cc2)C1c1ccc(Oc2ccccc2)cc1 (centres unmarked) [TRG 2414-132] | 27.4 |  |  | no fit
11 | NCC(N)CCCCN1Cc2ccccc2C(CNCCc2cccc(Cl)c2)C1c1ccc(Oc2ccccc2)cc1 (centres unmarked) [TRG 2414-133] | 5.8 | 15.9 |  | 
12 | NCC(CCCCN1Cc2ccccc2C(CNCCc2cccc(Cl)c2)C1c1ccc(Oc2ccccc2)cc1)NCCc1ccccc1 (centres unmarked) [TRG 2414-134] | 40.2 |  |  | no fit
13 | NCC(CCCCN1Cc2ccccc2C(CNCCc2cccc(Cl)c2)C1c1ccc(Oc2ccccc2)cc1)NCc1ccccc1 (centres unmarked) [TRG 2414-135] | 10.1 | 46 |  | 
14 | CC(C)Cc1ccc(C(C)CNC(CN)CCCCN2Cc3ccccc3C(CNCCc3cccc(Cl)c3)C2c2ccc(Oc3ccccc3)cc2)cc1 (centres unmarked) [TRG 2414-136] |  |  | no fit | no fit
15 | COc1cccc(CNCC2c3ccccc3CN(CCCCC(N)CN)C2c2ccc(Oc3ccccc3)cc2)c1 (centres unmarked) [TRG 2414-137] | 1.21 | 5.26 |  | 
16 | COc1cccc(CNCC2c3ccccc3CN(CCCCC(CN)NCCc3ccccc3)C2c2ccc(Oc3ccccc3)cc2)c1 (centres unmarked) [TRG 2414-138] | 10.6 | 16.6 |  | 
17 | COc1cccc(CNCC2c3ccccc3CN(CCCCC(CN)NCc3ccccc3)C2c2ccc(Oc3ccccc3)cc2)c1 (centres unmarked) [TRG 2414-139] | 0.788 | 12.6 |  | 
18 | COc1cccc(CNCC2c3ccccc3CN(CCCCC(CN)NCC(C)c3ccc(CC(C)C)cc3)C2c2ccc(Oc3ccccc3)cc2)c1 (centres unmarked) [TRG 2414-140] | 37 |  |  | no fit
19 | COc1ccc(CNCC2c3ccccc3CN(CCCCC(N)CN)C2c2ccc(Oc3ccccc3)cc2)cc1 (centres unmarked) [TRG 2414-141] | 2.04 | 4.21 |  | 
20 | COc1ccc(CNCC2c3ccccc3CN(CCCCC(CN)NCCc3ccccc3)C2c2ccc(Oc3ccccc3)cc2)cc1 (centres unmarked) [TRG 2414-142] | 4.38 | 11.3 |  | 
21 | COc1ccc(CNCC2c3ccccc3CN(CCCCC(CN)NCc3ccccc3)C2c2ccc(Oc3ccccc3)cc2)cc1 (centres unmarked) [TRG 2414-143] | 2.35 | 14 |  | 
22 | COc1ccc(CNCC2c3ccccc3CN(CCCCC(CN)NCC(C)c3ccc(CC(C)C)cc3)C2c2ccc(Oc3ccccc3)cc2)cc1 (centres unmarked) [TRG 2414-144] |  |  | no fit | no fit
